ChEMBL document CHEMBL2074011, “Comparison of furosemide and vinblastine secretion from cell lines overexpressing multidrug resistance protein (P-glycoprotein) and multidrug resistance-associated proteins (MRP1 and MRP2)” (Pharmacology, 2002)

Columns and labels:
[1] = target: ATP-binding cassette sub-family C member 2 (Homo sapiens, UniProt Q92887); assay: TP_TRANSPORTER: inhibition of Vinblastine transepithelial transport (basal to apical)(Vinblastine: 0.035 uM, Sulfinpyrazone: 1000 uM) in MRP2-expressing MDCKII cells; format: functional, cell-based; settings: dog, mdck-ii
Chain of ATP-binding cassette sub-family C member 2 (Q92887 whole entry): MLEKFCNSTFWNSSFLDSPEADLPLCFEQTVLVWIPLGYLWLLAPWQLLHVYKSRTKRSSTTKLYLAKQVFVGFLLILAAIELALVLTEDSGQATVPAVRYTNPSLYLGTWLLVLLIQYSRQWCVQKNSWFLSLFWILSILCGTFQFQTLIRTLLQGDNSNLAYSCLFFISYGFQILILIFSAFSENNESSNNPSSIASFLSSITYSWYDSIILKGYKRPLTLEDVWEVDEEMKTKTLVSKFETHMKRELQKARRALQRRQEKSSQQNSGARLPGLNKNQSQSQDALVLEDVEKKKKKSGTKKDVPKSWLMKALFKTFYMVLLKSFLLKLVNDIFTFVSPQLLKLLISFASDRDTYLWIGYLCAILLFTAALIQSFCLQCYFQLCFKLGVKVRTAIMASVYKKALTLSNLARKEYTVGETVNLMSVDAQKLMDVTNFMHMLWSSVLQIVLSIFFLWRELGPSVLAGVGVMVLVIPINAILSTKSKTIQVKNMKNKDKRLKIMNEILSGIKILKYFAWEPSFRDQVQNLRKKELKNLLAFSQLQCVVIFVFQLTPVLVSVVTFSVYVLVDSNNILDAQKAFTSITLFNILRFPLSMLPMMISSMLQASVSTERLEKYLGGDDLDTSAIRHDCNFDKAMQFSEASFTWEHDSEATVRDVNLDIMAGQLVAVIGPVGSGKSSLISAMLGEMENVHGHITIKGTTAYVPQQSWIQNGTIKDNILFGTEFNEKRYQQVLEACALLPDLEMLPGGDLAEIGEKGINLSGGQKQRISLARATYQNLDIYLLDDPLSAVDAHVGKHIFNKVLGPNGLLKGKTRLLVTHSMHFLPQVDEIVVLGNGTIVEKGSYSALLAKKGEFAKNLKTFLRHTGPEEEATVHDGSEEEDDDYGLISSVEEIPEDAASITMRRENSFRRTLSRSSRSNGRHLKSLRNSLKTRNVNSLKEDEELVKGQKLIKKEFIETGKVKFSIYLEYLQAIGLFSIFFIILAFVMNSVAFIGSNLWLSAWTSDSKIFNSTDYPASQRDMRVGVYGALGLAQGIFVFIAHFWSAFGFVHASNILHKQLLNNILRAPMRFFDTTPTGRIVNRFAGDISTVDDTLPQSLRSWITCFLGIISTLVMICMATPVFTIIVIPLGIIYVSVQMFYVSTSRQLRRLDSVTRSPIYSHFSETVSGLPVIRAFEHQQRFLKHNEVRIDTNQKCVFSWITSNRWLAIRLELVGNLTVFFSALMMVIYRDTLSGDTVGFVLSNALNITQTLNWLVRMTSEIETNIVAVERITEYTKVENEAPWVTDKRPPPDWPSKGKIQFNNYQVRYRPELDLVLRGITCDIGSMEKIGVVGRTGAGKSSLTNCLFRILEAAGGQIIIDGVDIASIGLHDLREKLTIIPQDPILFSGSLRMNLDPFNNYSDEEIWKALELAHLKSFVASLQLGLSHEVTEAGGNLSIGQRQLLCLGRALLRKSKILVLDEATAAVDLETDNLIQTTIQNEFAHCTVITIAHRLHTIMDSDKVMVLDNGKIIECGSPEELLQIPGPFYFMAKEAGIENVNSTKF

[2] = target: Multidrug resistance-associated protein 1 (Homo sapiens, UniProt P33527); assay: TP_TRANSPORTER: transepithelial transport (basal to apical) in MRP1-expressing LLC-PK1cell; format: functional, cell-based; settings: pig, llc-pk1
Chain of Multidrug resistance-associated protein 1 (P33527 whole entry): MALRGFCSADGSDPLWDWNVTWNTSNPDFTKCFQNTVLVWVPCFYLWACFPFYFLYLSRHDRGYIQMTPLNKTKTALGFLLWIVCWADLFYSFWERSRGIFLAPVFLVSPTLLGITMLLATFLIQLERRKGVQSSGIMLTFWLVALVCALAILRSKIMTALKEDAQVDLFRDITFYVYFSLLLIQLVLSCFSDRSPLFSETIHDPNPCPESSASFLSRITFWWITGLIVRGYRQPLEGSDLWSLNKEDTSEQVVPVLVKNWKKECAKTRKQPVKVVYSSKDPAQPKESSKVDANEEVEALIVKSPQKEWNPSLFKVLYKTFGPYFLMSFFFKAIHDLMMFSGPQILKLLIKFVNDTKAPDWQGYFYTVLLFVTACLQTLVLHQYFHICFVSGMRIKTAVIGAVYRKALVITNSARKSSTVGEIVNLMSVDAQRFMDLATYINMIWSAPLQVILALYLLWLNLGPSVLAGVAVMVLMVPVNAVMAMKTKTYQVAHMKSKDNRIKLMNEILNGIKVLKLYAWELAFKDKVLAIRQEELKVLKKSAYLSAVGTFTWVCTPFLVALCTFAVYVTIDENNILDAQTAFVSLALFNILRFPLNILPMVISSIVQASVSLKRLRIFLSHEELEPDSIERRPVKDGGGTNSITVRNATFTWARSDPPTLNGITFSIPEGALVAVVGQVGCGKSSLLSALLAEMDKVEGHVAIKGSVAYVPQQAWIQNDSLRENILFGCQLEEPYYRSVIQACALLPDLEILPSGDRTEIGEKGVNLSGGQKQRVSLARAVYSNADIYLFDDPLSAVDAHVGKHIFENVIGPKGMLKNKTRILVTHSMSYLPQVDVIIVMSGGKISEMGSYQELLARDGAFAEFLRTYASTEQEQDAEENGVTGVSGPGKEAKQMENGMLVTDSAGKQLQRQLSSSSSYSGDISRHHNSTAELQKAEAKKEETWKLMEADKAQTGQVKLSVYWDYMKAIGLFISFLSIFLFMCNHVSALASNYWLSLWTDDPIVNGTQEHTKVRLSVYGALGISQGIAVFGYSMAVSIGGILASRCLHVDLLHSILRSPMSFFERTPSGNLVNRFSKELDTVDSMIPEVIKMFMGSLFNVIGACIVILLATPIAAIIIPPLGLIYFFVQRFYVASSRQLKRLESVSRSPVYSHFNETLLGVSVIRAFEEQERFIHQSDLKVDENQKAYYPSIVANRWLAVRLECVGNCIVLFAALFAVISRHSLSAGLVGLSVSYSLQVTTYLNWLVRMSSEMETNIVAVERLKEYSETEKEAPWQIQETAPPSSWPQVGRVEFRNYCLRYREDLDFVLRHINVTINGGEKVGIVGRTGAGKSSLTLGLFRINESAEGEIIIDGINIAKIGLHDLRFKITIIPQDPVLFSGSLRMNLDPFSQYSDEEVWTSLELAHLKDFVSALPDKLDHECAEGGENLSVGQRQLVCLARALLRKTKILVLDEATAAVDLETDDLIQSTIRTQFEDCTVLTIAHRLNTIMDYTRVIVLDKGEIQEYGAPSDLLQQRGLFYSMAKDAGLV

Activity [1] | Activity [2] | Structure (SMILES)
inhibitor [+] | – | O=C1C(CC[S+]([O-])c2ccccc2)C(=O)N(c2ccccc2)N1c1ccccc1 (configuration not stated) [SULFINPYRAZONE]
– | substrate [+] | CC[C@]1(O)C[C@@H]2CN(CCc3c([nH]c4ccccc34)[C@@](C(=O)OC)(c3cc4c(cc3OC)N(C)[C@H]3[C@@](O)(C(=O)OC)[C@H](OC(C)=O)[C@]5(CC)C=CCN6CC[C@]43[C@@H]65)C2)C1 [VINBLASTINE]
